Assay results as given in patent US4264597A, “Cephalosporin analogues and processes for the preparation thereof” (priority 1978, dated 1981).
Converted amounts (≈) assume the structure as drawn.

Test system: T. asteroides
Test: In vitro antimicrobial activity, two-fold agar-plate dilution method (MIC)
Assay type: cell-based
Conditions: overnight culture in Trypticase-soy broth (10^4-5 viable spores per ml) streaked on HI-agar, incubation at 37° C. for 20 hours
Description: In vitro antibacterial activity was determined by the two-fold agar-plate dilution method as described below. One loopful of an overnight culture of each test strain in Trypticase-soy broth (10^4-5 viable spores per ml) was streaked on heart infusion sugar (HI-agar) containing graded concentrations of antibiotics, and the minimal inhibitory concentration (MIC) was expressed in terms of μg/ml after incubation at 37° C. for 20 hours.

For `O=C(COc1ccccc1)N[C@@H]1C(=O)N2C(C(=O)OCc3ccccc3)=CC(=O)S[C@H]12` [(1)], which MIC is on record?
Its MIC is 100 µg/mL (≈ 228 µM).

How did the MIC turn out when `O=C(COc1ccccc1)N[C@@H]1C(=O)N2C(C(=O)OCc3ccccc3)=CC(=O)O[C@H]12` [(2)] was run?
The MIC was 200 µg/mL (≈ 473 µM).
